Reference: publication PMC10903983, “Inducing mitochondriopathy-like damages by transformable nucleopeptide nanoparticles for targeted therapy of bladder cancer” (National Science Review, 2024)
Non-standard residues stand in square brackets, D forms with d. Residues, ends and D or L forms follow the SMILES beside them. *: point of attachment. Coumarin3carbonyl(7-OH) = O=C(c1cc2ccc(O)cc2oc1=O)*; Acetyl(thymin-1-yl) = Cc1cn(CC(=O)*)c(=O)[nH]c1=O; PEG8 = NCCOCCOCCOCCOCCOCCOCCOCCOCCC(=O)O

Columns and labels:
[1] = ATP sequestration: ATP hydrolysis by alkaline phosphatase (ALP); assay type: biochemical; settings: ATP 200 μM, ALP 0.5 U/mL, DEA buffer 10 mM pH 9.8, 37 °C, bioluminescence, blank control 13%
T24 cells = test: CCK-8 cytotoxicity assay, T24 cells; assay type: cell-based, human; settings: 48 h; for IC50: human
EJ cells = assay type: cell-based; settings: human, 48 h
RT-112 cells = assay type: cell-based; settings: human, 48 h
SV-HUC-1 cells = test: Toxicity assay towards SV-HUC-1 normal bladder cells; assay type: cell-based; settings: viability, different concentrations, 48 h
T24 xenograft mice [2] = test: In vivo / ex vivo dose-dependent fluorescence imaging in T24 xenograft mice; settings: i.v., 500 μM or 250 μM in 200 μL PBS, 1-96 hours, N = 3
T24 xenograft mice [3] = test: In vivo antitumor evaluation, T24 subcutaneous xenograft model; settings: i.v. 500 μM in 200 μL PBS six times
Experimental: 3 mm at 8 h post-treatment. The fragments were then fixed with 2.5% glutaraldehyde at 4°C overnight and treated with 1% […] for 2 h after being rinsed thrice with PBS.
Subsequently, graded concentrations of alcohol solutions (50, 70, 80, 90, 100, 100 and 100%) were utilized for graded dehydration (with 10 minutes each). Next, tumor fragments were exposed to a mixture of alcohol/acetone (1:1) for 10 min, a mixture of acetone/EPON-812 (1:1) for 1 h and a mixture of acetone/EPON-812 (1:2) for 1 h. Pure EPON-812 was then utilized to further infiltrate the tumor fragments overnight at 4°C, after which it was cured at 37, 45 and 60°C for 24 h respectively. Finally, the morphology of NLS-FF-T in the tumor slice was observed by bio-Transmission Electron Microscope (bio-TEM) after being stained with 2% uranyl acetate and 3% lead citrate.
To further verify the therapeutic potency of the IAS system, a T24 xenograft mouse […]
When the average tumor volume reached 100-200 mm3, the T24 tumor-bearing mice were […]
The individual tumor growth and body weight were measured every 2 d for analysis, with tumor volume calculated as follows: tumor width2 × tumor length × 0.5. […]
At the end of the treatment period, T24 tumor tissues were collected and washed thrice with PBS. […] The ATP levels were then measured according to the manufacturer’s instructions using an ATP Content Assay Kit. […]

healthy BALB/c nude mice = test: In vivo toxicology evaluation in healthy mice; settings: N = 4
[4] = test system: T24 xenograft mice (incomplete tumor resection); settings: after intravenous administration, tumor-recurrence model
Experimental: In vivo antitumor evaluation of IAS system in regrowth of residual tumor model
To establish the T24 xenograft mouse model, BALB/c nude mice (approximately 6-8
weeks, weighing 16-18 g) were subcutaneously injected with T24 cells (5 × 106) suspended
in 100 μL Matrigel. The mice were randomly divided into five groups, with six mice in each
group. Both body weight and tumor volume were measured for analysis. At 21 d after
inoculation, tumor tissues of approximately 300-500 mm3 were resected, leaving a residual
tumor of approximately 30-50 mm3. After that, the T24 xenograft mice were intravenously
administered with PBS, NLS-FF, FF-T, NLS-T and NLS-FF-T (500 μM in 200 μL PBS)
every two days on day 21, 23, 25, 27, 29 and 31. The tumor volume was calculated using the formula: tumor width2 × tumor length × 0.5.
For two-group comparisons, statistical analysis was performed using one-way ANOVA
followed by post hoc Tukey's test. The GraphPad Prism software 8.0 was used for all

[5] = i.v. 1000, 500 or 250 μM in 200 μL PBS six times

| Structure (SMILES) | ATP remaining after ALP catalytic hydrolysis ([1]; NLS-FF-T nanofibers) | ATP remaining after ALP catalytic hydrolysis ([1]; NLS-FF-T nanoparticle group) | IC50 (T24 cells) | cytotoxicity against T24 cells compared with T-ATP (T24 cells; viability, different concentrations) | IC50 (EJ cells) | IC50 (RT-112 cells) | toxicity towards T24 tumor cells versus SV-HUC-1 normal bladder cells (SV-HUC-1 cells) | tumor accumulation and retention (in vivo fluorescence imaging) (T24 xenograft mice [2]) | body weight (T24 xenograft mice [3]) | histology (H&E) of liver and kidney (healthy BALB/c nude mice; i.v. 1000, 500 or 250 μM in 200 μL PBS six times at 2-day intervals) | blood biochemistry (ALT, AST, ALP, BUN, CRE) (healthy BALB/c nude mice; [5]) | routine blood examination (RBC, WBC, PLT, HGB, NEUT) versus PBS (healthy BALB/c nude mice; [5]) | body weights [4] |
| --- | --- | --- | --- | --- | --- | --- | --- | --- | --- | --- | --- | --- | --- |
| Cc1cn(CC(=O)NCCCC[C@H](NC(=O)c2cc3ccc(O)cc3oc2=O)C(=O)N[C@@H](CC(C)C)C(=O)N[C@H](C(=O)N[C@@H](Cc2ccccc2)C(=O)N[C@@H](Cc2ccccc2)C(=O)NCCOCCOCCOCCOCCOCCOCCOCCOCCC(=O)N[C@H](C(=O)N[C@@H](CCCCN)C(=O)N[C@@H](CCCNC(=N)N)C(=O)N[C@@H](CCCCN)C(=O)N[C@@H](CCCCN)C(=O)N[C@@H](CCCCN)C(=O)N2CCC[C@H]2C(=O)O)C(C)C)C(C)C)c(=O)[nH]c1=O [NLS-FF-T, HCA-K(T)LVFF-PEG-VKRKKKP] ({Coumarin3carbonyl(7-OH)}-K(Acetyl(thymin-1-yl))LVFF[PEG8]VKRKKKP-OH) | 61% | 27% | 34 µM | significantly higher cytotoxicity against T24 cells than that of T-ATP | 32 µM | 43.3 µM | enhanced toxicity towards tumor cells (T24) than that of normal cells (SV-HUC-1) | dose-dependent tumor accumulation and long-time tumor retention | no substantial loss of body weight | no signs of histological deterioration or damage | typical ranges | no differences | no impact |
| CC(C)C[C@H](NC(=O)[C@H](CCCCN)NC(=O)c1cc2ccc(O)cc2oc1=O)C(=O)N[C@H](C(=O)N[C@@H](Cc1ccccc1)C(=O)N[C@@H](Cc1ccccc1)C(=O)NCCOCCOCCOCCOCCOCCOCCOCCOCCC(=O)N[C@H](C(=O)N[C@@H](CCCCN)C(=O)N[C@@H](CCCNC(=N)N)C(=O)N[C@@H](CCCCN)C(=O)N[C@@H](CCCCN)C(=O)N[C@@H](CCCCN)C(=O)N1CCC[C@H]1C(=O)O)C(C)C)C(C)C [NLS-FF, HCA-KLVFF-PEG-VKRKKKP] ({Coumarin3carbonyl(7-OH)}-KLVFF[PEG8]VKRKKKP-OH) | – | – | 532 µM | – | 278 µM | 376 µM | – | – | – | – | – | – | – |
| Cc1cn(CC(=O)NCCCC[C@H](NC(=O)c2cc3ccc(O)cc3oc2=O)C(=O)N[C@@H](CC(C)C)C(=O)N[C@H](C(=O)NCCOCCOCCOCCOCCOCCOCCOCCOCCC(=O)N[C@H](C(=O)N[C@@H](CCCCN)C(=O)N[C@@H](CCCNC(=N)N)C(=O)N[C@@H](CCCCN)C(=O)N[C@@H](CCCCN)C(=O)N[C@@H](CCCCN)C(=O)N2CCC[C@H]2C(=O)O)C(C)C)C(C)C)c(=O)[nH]c1=O [NLS-T, HCA-K(T)LV-PEG-VKRKKKP] ({Coumarin3carbonyl(7-OH)}-K(Acetyl(thymin-1-yl))LV[PEG8]VKRKKKP-OH) | – | – | 119 µM | – | 122 µM | 107 µM | – | – | – | – | – | – | – |
| Cc1cn(CC(=O)NCCCC[C@H](NC(=O)c2cc3ccc(O)cc3oc2=O)C(=O)N[C@@H](CC(C)C)C(=O)N[C@H](C(=O)N[C@@H](Cc2ccccc2)C(=O)N[C@@H](Cc2ccccc2)C(=O)NCCOCCOCCOCCOCCOCCOCCOCCOCCC(=O)NCCOCCOCCOCCOCCOCCOCCOCCOCCC(=O)O)C(C)C)c(=O)[nH]c1=O [FF-T, HCA-K(T)LVFF-PEG2] ({Coumarin3carbonyl(7-OH)}-K(Acetyl(thymin-1-yl))LVFF[PEG8][PEG8]-OH) | – | – | 408 µM | – | 181 µM | 356 µM | – | – | – | – | – | – | – |
